{"source": "ChEMBL document CHEMBL1201862", "about": "“PubChem BioAssay data set” (2004)", "key": {"[1]": {"experiment": "viability of HCT116 lacking mutant beta-catenin – cell-based, human colon tumor, dose response (AID 1045);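 further: HCT116 colon tumor cells with beta catenin knocked out; cells exposed to compound for 60 hours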", "assay_type": "functional"}, "[2]": {"experiment": "viability of PTEN-deleted HCT116 cells – cell-based, HCT116 PTEN knockout, dose response (AID 1047);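 further: HCT116 colon tumor cells with PTEN knocked out; cells exposed to compound for 60 hours before readout; potency for loss of cell viability measured by luminescence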", "assay_type": "functional"}, "[3]": {"biological_target": "T1, RNA-binding protein pos-1 (Caenorhabditis elegans, UniProt G5EF15)", "T1 sequence (G5EF15 whole entry)": "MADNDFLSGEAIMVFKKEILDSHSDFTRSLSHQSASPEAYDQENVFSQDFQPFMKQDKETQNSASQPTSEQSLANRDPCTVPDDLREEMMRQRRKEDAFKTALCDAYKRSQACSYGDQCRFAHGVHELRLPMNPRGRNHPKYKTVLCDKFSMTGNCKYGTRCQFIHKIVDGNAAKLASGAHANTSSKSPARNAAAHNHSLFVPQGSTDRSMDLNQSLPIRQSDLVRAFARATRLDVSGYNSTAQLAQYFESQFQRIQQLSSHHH", "experiment": "disruptors of C. elegans POS-1 RNA interaction – biochemical, fluorescence polarization, dose response (AID 1964);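 further: purified POS-1 fused to maltose binding protein made in E. coli; potency of compounds blocking POS-1 binding to fluorescent RNA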"}, "[4]": {"biological_target": "T2, Zinc finger protein mex-5 (Caenorhabditis elegans, UniProt Q9XUB2)", "T2 sequence (Q9XUB2 whole entry)": "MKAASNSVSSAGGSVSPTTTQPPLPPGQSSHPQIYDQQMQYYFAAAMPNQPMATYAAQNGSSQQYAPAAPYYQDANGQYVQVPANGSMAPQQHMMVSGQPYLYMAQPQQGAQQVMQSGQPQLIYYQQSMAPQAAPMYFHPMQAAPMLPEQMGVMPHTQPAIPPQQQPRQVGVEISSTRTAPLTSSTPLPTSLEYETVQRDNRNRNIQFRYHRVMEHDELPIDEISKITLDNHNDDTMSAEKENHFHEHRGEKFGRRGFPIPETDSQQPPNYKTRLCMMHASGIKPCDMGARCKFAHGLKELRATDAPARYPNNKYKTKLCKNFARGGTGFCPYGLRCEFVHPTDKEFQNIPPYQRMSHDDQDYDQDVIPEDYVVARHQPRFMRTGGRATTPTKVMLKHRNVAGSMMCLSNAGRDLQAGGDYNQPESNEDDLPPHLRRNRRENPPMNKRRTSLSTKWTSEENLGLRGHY", "experiment": "potency of MEX-5 RNA-binding blockers – biochemical, C. elegans, fluorescence polarization, dose response (AID 1960)"}, "[5]": {"experiment": "Luminescence Cell-Based Dose Retest to Confirm Inhibitors of Cancer Stem Cells. [Related pubchem assays (depositor defined):AID2717, AID2721]", "assay_type": "functional", "settings": "Homo sapiens"}, "[6]": {"biological_target": "Heat shock protein HSP 90-alpha (Homo sapiens, UniProt P07900)", "assay_type": "functional, organism-based"}, "[7]": {"biological_target": "Cytochrome P450 2C9 (Homo sapiens, UniProt P11712)", "sequence (P11712 whole entry)": "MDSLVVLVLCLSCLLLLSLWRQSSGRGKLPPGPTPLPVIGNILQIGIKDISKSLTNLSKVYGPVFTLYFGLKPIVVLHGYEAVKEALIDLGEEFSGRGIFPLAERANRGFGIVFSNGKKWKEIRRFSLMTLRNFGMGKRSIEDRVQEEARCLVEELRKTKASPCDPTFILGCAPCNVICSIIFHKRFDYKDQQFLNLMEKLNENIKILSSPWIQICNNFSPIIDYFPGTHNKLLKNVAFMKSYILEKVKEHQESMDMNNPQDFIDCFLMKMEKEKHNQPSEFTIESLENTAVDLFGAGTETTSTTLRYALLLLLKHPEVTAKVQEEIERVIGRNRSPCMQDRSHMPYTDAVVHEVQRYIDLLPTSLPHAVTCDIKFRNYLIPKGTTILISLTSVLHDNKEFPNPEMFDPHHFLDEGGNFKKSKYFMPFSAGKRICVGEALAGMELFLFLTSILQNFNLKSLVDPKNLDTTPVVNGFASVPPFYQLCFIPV"}, "[8]": {"biological_target": "T3, Protein RecA (Mycobacterium tuberculosis, UniProt P9WHJ3)", "T3 sequence (P9WHJ3 whole entry)": "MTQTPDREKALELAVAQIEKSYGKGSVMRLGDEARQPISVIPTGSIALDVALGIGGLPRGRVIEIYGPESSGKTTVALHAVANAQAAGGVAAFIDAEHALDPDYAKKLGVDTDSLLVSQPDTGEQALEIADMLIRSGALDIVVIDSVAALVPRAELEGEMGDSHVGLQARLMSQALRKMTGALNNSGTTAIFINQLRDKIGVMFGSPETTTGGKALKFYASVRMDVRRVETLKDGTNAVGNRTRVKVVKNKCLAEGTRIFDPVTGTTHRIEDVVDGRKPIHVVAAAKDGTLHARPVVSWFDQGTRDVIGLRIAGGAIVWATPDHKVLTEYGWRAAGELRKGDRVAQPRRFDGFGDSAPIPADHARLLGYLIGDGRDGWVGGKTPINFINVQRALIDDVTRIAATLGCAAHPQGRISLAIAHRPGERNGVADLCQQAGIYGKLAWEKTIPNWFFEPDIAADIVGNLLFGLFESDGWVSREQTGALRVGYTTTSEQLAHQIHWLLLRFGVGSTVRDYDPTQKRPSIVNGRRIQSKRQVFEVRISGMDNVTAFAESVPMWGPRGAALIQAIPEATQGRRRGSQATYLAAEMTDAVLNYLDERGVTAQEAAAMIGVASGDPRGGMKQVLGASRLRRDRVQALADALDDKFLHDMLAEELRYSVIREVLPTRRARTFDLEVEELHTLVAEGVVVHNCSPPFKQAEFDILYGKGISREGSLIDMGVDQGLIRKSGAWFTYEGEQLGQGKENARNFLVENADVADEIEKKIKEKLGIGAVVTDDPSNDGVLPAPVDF", "experiment": "Fluorescence Cell-Free Homogeneous Dose Retest to Identify Inhibitors of RecA-Intein Splicing Activity. [Related pubchem assays (depositor defined):AID2097, AID2223, AID489010, AID492950]", "assay_type": "functional"}, "[9]": {"biological_target": "T4, Replicative DNA helicase DnaB (Mycobacterium tuberculosis, UniProt P9WMR3)", "T4 sequence (P9WMR3 whole entry)": "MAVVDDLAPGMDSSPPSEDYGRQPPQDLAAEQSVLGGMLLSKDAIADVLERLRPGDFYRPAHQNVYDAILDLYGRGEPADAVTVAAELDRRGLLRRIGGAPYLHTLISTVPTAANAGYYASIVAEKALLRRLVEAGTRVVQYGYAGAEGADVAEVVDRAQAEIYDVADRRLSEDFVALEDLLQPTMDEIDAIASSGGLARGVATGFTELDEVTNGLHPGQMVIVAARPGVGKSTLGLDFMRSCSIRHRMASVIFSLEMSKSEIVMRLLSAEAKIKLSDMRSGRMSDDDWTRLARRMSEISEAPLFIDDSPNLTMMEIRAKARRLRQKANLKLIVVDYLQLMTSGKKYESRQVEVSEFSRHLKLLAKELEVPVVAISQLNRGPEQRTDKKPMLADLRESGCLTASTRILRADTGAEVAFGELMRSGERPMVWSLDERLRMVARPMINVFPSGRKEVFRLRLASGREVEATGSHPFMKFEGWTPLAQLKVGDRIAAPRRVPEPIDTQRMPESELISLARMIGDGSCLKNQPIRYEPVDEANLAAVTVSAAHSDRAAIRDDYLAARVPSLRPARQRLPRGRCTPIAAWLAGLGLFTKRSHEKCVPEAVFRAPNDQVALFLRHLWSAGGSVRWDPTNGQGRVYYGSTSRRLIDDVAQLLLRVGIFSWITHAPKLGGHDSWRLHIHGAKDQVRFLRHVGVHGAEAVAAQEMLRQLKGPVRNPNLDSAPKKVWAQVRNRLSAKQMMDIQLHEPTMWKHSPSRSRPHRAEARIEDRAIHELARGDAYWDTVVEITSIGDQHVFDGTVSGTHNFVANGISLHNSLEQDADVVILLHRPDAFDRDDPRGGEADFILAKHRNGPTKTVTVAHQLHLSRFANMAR", "experiment": "DnaB intein splicing inhibitors, dose response, biochemical, cell-free fluorescence (AID 449749)", "assay_type": "functional"}, "[10]": {"biological_target": "T5, Cytochrome P450 1A2 (Homo sapiens, UniProt P05177)", "T5 sequence (P05177 whole entry)": "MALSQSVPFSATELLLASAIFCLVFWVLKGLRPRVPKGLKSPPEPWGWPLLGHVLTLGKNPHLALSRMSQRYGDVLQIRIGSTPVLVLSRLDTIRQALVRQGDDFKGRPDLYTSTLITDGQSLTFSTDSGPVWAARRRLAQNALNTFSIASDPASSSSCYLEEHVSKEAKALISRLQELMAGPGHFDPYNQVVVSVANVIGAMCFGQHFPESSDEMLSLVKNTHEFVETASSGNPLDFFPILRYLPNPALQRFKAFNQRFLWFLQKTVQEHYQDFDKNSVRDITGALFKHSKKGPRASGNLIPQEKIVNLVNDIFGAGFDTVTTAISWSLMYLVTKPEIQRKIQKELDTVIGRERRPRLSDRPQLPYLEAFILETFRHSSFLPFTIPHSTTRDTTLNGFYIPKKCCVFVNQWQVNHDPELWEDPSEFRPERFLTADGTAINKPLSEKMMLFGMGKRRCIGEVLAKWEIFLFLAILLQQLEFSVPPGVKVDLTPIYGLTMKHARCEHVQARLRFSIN"}, "[11]": {"experiment": "P. falciparum Dd2 growth inhibitors, dose response, SYBR Green, cherry-picked samples (AID 1159567)", "assay_type": "functional, cell-based"}, "[12]": {"biological_target": "T6, Fatty acid synthase (Homo sapiens, UniProt P49327)", "T6 sequence (P49327 whole entry)": "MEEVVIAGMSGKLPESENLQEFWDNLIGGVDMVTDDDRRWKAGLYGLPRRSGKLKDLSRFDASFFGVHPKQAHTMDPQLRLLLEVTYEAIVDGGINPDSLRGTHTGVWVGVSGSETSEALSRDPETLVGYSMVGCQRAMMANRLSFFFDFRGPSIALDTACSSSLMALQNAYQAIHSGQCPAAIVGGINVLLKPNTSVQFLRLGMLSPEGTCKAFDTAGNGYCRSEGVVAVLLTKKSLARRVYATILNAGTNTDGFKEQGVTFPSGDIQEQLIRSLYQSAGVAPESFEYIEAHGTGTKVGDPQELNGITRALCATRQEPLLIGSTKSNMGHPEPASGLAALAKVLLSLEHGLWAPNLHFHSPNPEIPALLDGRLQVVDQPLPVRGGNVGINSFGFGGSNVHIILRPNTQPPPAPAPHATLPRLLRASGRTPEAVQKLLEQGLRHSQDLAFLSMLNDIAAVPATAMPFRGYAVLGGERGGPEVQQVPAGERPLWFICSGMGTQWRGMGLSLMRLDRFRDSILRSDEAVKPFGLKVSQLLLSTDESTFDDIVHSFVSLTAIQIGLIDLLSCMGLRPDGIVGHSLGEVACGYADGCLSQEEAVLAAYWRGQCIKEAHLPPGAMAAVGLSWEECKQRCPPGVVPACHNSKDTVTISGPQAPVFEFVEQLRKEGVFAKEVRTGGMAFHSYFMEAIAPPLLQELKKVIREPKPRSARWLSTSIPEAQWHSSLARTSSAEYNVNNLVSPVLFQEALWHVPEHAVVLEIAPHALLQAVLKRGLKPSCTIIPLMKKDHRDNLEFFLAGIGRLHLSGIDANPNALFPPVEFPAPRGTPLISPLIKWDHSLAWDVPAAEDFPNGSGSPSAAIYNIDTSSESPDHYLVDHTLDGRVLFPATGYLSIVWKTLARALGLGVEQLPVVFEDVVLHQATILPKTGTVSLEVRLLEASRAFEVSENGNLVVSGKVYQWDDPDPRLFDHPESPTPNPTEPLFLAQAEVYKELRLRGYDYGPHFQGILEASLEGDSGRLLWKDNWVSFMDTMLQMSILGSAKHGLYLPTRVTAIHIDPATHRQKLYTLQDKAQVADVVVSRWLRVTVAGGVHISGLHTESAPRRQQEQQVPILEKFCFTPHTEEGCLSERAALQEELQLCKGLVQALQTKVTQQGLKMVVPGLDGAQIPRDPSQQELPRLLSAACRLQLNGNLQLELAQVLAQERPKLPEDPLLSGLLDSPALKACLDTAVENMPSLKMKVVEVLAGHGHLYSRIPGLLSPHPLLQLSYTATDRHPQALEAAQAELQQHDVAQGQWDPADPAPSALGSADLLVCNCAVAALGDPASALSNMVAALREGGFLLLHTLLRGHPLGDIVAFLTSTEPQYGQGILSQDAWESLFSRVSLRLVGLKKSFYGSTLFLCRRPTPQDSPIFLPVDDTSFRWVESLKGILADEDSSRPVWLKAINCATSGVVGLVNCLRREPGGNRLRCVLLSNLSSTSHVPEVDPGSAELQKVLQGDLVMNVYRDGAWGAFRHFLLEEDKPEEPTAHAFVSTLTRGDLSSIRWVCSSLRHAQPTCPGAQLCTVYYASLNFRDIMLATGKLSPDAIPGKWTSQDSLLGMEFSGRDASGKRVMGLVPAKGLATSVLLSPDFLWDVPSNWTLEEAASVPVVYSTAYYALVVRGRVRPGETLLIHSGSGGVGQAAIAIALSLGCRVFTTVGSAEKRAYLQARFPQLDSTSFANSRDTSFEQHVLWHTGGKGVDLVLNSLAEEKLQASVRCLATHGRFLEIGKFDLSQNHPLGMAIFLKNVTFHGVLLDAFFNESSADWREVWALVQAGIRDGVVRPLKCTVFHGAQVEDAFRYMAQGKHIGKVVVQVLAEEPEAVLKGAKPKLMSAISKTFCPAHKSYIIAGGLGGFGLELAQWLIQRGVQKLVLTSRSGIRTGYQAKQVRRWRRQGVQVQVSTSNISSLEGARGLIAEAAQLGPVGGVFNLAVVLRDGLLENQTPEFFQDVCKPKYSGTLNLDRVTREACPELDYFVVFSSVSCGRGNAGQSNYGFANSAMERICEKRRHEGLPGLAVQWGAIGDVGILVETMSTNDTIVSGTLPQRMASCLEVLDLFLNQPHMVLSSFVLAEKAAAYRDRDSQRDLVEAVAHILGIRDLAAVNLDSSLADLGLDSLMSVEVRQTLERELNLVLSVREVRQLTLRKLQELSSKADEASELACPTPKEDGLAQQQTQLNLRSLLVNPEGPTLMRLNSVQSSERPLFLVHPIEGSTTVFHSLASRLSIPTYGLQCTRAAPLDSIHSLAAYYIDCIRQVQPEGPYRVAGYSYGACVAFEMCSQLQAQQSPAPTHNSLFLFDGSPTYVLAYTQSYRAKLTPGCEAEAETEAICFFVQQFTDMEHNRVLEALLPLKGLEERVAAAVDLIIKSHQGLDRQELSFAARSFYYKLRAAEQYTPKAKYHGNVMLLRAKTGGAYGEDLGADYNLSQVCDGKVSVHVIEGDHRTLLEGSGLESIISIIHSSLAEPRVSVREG", "experiment": "inhibition of human FAS-TE enzyme activity – biochemical, endpoint fluorescence intensity, uHTS hits, dose response (AID 624327);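 further: fluorescence from hydrolysis of an O-methyl fluorescein acyl ester substrate by the enzyme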", "assay_type": "functional"}, "[13]": {"biological_target": "T6, Fatty acid synthase", "experiment": "inhibition of human FAS-TE enzyme activity – biochemical, kinetic fluorescence intensity, dose response (AID 624326);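 further: rate of fluorescence rise from hydrolysis of a fluorogenic O-methyl fluorescein ester substrate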", "assay_type": "functional"}}, "note": "Activity calls are given as the source filed them.", "data": [{"smiles": "O=C(CCC(=O)CCN1CCCCC1)CCN1CCCCC1", "values": [{"measurement": "EC50", "setting": "[1]", "value": "32.6 µM (active)"}, {"measurement": "EC50", "setting": "[2]", "value": "33.1 µM (active)"}]}, {"smiles": "N#C/C(=C/c1ccc(CNS(=O)(=O)c2ccccc2)o1)C(=O)NCc1ccccc1", "values": [{"measurement": "EC50", "setting": "[3]", "value": "> 300 µM (not active)"}, {"measurement": "EC50", "setting": "[4]", "value": "> 300 µM (not active)"}]}, {"smiles": "COc1cc(/C=N/O)cc(Br)c1OCc1cccc(Cl)c1", "values": [{"measurement": "AC50", "setting": "[5]", "value": "5.56 µM (active)"}, {"measurement": "AC50", "setting": "[6]", "value": "7.99 µM (active)"}, {"measurement": "AC50", "setting": "[7]", "value": "inconclusive"}]}, {"smiles": "O=C(c1c[nH]c(C(=O)C(Cl)(Cl)Cl)c1)c1ccccc1Cl", "values": [{"measurement": "EC50", "setting": "[1]", "value": "24.9 µM (active)"}, {"measurement": "EC50", "setting": "[8]", "value": "6.27 µM (active)"}, {"measurement": "EC50", "setting": "[2]", "value": "26.5 µM (active)"}, {"measurement": "AC50", "setting": "[9]", "value": "7.85 µM (active)"}]}, {"smiles": "CCOc1ccccc1NC(=O)C1Cc2ccccc2CN1S(C)(=O)=O", "note": "(centres undefined)", "values": [{"measurement": "AC50", "setting": "[7]", "value": "inconclusive"}, {"measurement": "AC50", "setting": "[10]", "value": "39.8 µM (inconclusive)"}]}, {"smiles": "C/C=C/c1ccc2n(c1=O)C[C@@H]1[C@@H](CO)[C@H](C(=O)N3CCC(Cc4ccccc4)CC3)N(CCC)[C@H]21.C/C=C\\c1ccc2n(c1=O)C[C@@H]1[C@@H](CO)[C@H](C(=O)N3CCC(Cc4ccccc4)CC3)N(CCC)[C@H]21", "values": [{"measurement": "AC50", "setting": "[11]", "value": "4.32 µM (active)"}]}, {"smiles": "O=C1C=CC(=O)C2C1C1(Cl)C(Cl)=C(Cl)C2(Cl)C1(Cl)Cl", "note": "(centres undefined)", "values": [{"measurement": "IC50", "setting": "[12]", "value": "14.8 µM (active)"}, {"measurement": "IC50", "setting": "[13]", "value": "13.8 µM (active)"}, {"measurement": "AC50", "setting": "[6]", "value": "7.83 µM (active)"}]}, {"smiles": "COc1cccc(-c2nc(Oc3cc(C)cc(C)c3)c3ccccc3n2)c1O", "values": [{"measurement": "EC50", "setting": "[1]", "value": "13.7 µM (active)"}, {"measurement": "EC50", "setting": "[2]", "value": "8.12 µM (active)"}]}]}
